Measurements reported in patent publication US12171755B2, “PAPD5 inhibitors and methods of use thereof” (Children's Medical Center Corporation, priority 2017, dated 2024).

Target: T1, PAPD5 (Homo sapiens, UniProt Q8NDF8)
T1 construct: made in house
Assay: High-throughput luminescence (KinaseGlo) RNA polyadenylation assay, ATP utilization by recombinant PAPD5
Type: biochemical
Settings: Table 4 (entries of Table 5), ratio of luminescence with inhibitor to DMSO; for Fold-change determined at compound concentration 33 μM: 33 μM compound; for Fold-change determined at compound concentration 100 μM: 100 μM compound, higher = higher inhibition; for Fold-change determined at compound concentration 10 μM: 10 μM compound
Method in brief: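 Values are ratios of inhibitor to DMSO luminescence, so larger numbers mean less ATP consumed. Screening was run in duplicate with a 2 h room-temperature reaction of recombinant PAPD5, ATP and oligo RNA substrate plus compound. Residual ATP was detected after a 10 min KinaseGlo step.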

T1 sequence (Q8NDF8 68-698 isoform Q8NDF8-5): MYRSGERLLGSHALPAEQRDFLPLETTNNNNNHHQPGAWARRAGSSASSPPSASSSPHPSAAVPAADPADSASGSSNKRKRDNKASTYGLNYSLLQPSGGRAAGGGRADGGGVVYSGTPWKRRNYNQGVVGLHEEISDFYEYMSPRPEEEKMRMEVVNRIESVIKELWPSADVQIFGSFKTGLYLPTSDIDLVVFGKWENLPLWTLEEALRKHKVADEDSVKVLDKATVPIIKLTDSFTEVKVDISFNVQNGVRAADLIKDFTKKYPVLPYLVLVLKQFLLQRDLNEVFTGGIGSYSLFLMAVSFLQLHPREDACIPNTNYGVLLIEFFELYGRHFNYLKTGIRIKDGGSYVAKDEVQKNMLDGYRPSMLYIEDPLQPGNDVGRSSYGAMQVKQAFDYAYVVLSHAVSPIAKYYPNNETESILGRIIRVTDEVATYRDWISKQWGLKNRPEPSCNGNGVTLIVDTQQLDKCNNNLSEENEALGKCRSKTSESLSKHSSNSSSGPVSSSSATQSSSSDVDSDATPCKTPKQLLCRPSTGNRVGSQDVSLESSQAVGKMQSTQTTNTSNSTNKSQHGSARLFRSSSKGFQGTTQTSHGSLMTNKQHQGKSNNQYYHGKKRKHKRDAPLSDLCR

| Fold-change determined at compound concentration 33 μM | Fold-change determined at compound concentration 100 μM | Fold-change determined at compound concentration 10 μM | SMILES |
| --- | --- | --- | --- |
| 1.118 | 1.213 |  | Cc1nn(CC(=O)O)c(=O)c2cc3cc(F)ccc3n12 [Entry 214, 2-(8-fluoro-4-methyl-1-oxo-[1,2,4]triazino[4,5-a]indol-2-yl)acetic acid] |
| 1.074 | 2.037 |  | O=C(O)c1cccn2c(=O)c3c4c(sc3nc12)CCCC4 [Entry 215, 12-oxo-1,2,3,4-tetrahydro-12H-[1]benzothieno[2,3-d]pyrido[1,2-a]pyrimidine-7-carboxylic acid] |
| 1.103 | 1.239 |  | Cc1ccc(S(=O)(=O)NCc2ccc(-c3nn4cnnc4s3)cc2)cc1 [Entry 216, 4-methyl-N-[[4-([1,2,4]triazolo[3,4-b][1,3,4]thiadiazol-6-yl)phenyl]methyl]benzenesulfonamide] |
| 1.114 | 1.245 |  | CCOc1ccc(-c2noc(Cn3cnc4c(cnn4-c4ccccc4)c3=O)n2)cc1OC [Entry 217, 5-[[3-(4-ethoxy-3-methoxyphenyl)-1,2,4-oxadiazol-5-yl]methyl]-1-phenylpyrazolo[3,4-d]pyrimidin-4-one] |
| 1.096 | 1.304 |  | COc1cccc(NC(=O)c2ccc3c(=O)n4nc(Nc5ccccc5OC)sc4nc3c2)c1 [Entry 218, 2-(2-methoxyanilino)-N-(3-methoxyphenyl)-5-oxo-[1,3,4]thiadiazolo[2,3-b]quinazoline-8-carboxamide] |
| 1.086 | 1.339 |  | CC(C)Cn1c(=O)c(-c2ccc(C(=O)Nc3ccc4c(c3)OCCO4)cc2)nc2ccccc21 [Entry 219, N-(2,3-dihydro-1,4-benzodioxin-6-yl)-4-[4-(2-methylpropyl)-3-oxoquinoxalin-2-yl]benzamide] |
| 1.068 | 1.277 |  | Cc1ccc2[nH]c(=O)c3cc(C(=O)O)sc3c2c1 [Entry 220, 8-methyl-4-oxo-5H-thieno[3,2-c]quinoline-2-carboxylic acid] |
| 1.084 | 1.585 |  | COc1ccc(C(=O)N2CCc3ccc(CNS(C)(=O)=O)cc32)cc1 [Entry 221, N-[[1-(4-methoxybenzoyl)-2,3-dihydroindol-6-yl]methyl]methanesulfonamide] |
| 1.05 | 1.205 |  | O=C(O)Cc1c2ccccc2n2c1[nH]c(=O)c1ccccc12 [Entry 222, 2-(5-oxo-6H-indolo[1,2-a]quinazolin-7-yl)acetic acid] |
| 1.207 | 1.254 |  | COc1cc(NS(=O)(=O)c2ccc3oc(=O)c4ncn(C)c4c3c2)cc(OC)c1 [Entry 223, N-(3,5-dimethoxyphenyl)-1-methyl-4-oxochromeno[3,4-d]imidazole-8-sulfonamide] |
| 1.193 | 1.37 |  | COc1cc2[nH]c3c(SCC(N)=O)ncnc3c2cc1OC [Entry 224, 2-[(7,8-dimethoxy-5H-pyrimido[5,4-b]indol-4-yl)sulfanyl]acetamide] |
| 1.173 | 1.219 |  | COc1cccc(-c2nnc3n(CCc4ccccc4)c(=O)c4ccccc4n23)c1O [Entry 225, (1Z)-1-(5-methoxy-6-oxocyclohexa-2,4-dien-1-ylidene)-4-(2-phenylethyl)-2H-[1,2,4]triazolo[4,3-a]quinazolin-5-one] |
| 1.095 | 1.228 |  | Cc1cccc2c1-c1sc(C(=O)NCCCN3CCC(C)CC3)cc1CO2 [Entry 226, 9-methyl-N-[3-(4-methylpiperidin-1-yl)propyl]-4H-thieno[3,2-c]chromene-2-carboxamide] |
| 1.097 | 1.425 |  | Cn1[nH]c(-c2cccnc2)c2nc(-c3ccccc3OC(F)F)nc1-2 [Entry 227, 5-[2-(difluoromethoxy)phenyl]-1-methyl-3-pyridin-3-yl-2H-imidazo[4,5-c]pyrazole] |
| 1.146 | 1.3 |  | CCOC(=O)c1c(C)nc2n(C)c3ccccc3n12 [Entry 228, ethyl 2,9-dimethyl-9H-benzo[d]imidazo[1,2-a]imidazole-3-carboxylate] |
| 1.249 | 1.704 |  | O=C(O)CSc1nnc2n(-c3ccccc3)c3ccccc3n12 [Entry 229, [(9-Phenyl-9H-[1,2,4]triazolo[4,3-a]benzimidazol-3-yl)thio]acetic acid] |
| 1.053 | 1.527 |  | Cc1nc(-c2cnccn2)nc2c1CC(=O)N2CC1CCCO1 (stereo not shown) [Entry 230, 4-methyl-2-(2-pyrazinyl)-7-(tetrahydro-2-furanylmethyl)-5,7-dihydro-6H-pyrrolo[2,3-d]pyrimidin-6-one] |
| 1.068 | 1.36 |  | CCn1c(=S)sc2c(=O)n3[nH]c(=O)c4ccccc4c3nc21 [Entry 231, 11-ethyl-10-thioxo-10,11-dihydro-6H-[1,3]thiazolo[4′,5′:4,5]pyrimido[2,1-a]phthalazine-5,8-dione] |
| 1.198 | 1.342 |  | CC1CCN(C(=O)CSc2nc3c(c(=O)n2Cc2ccccc2)SCC3)CC1 [Entry 232, 3-benzyl-2-((2-(4-methylpiperidin-1-yl)-2-oxoethyl)thio)-6,7-dihydrothieno[3,2-d]pyrimidin-4(3H)-one] |
| 1.256 | 1.859 |  | CC1Oc2ccc(C(=O)CSc3nc(-c4ccc(Cl)cc4)c(C#N)c(=O)[nH]3)cc2NC1=O (stereo not shown) [Entry 233, 4-(4-chlorophenyl)-2-{[2-(2-methyl-3-oxo-3,4-dihydro-2H-1,4-benzoxazin-6-yl)-2-oxoethyl]sulfanyl}-6-oxo-1,6-dihydro-5-pyrimidinecarbonitrile] |
| 1.319 | 1.648 |  | CC(=O)Nc1ccc2nc3c(=O)[nH]c(=O)[nH]c3nc2c1 [Entry 234, N-(2,4-dioxo-1H-benzo[g]pteridin-8-yl)acetamide] |
| 1.177 | 1.452 |  | N#Cc1c[nH]n2c(NC3CCCCC3)c(-c3ccccc3F)nc12 [Entry 235, 3-(cyclohexylamino)-2-(2-fluorophenyl)-5H-imidazo[1,2-b]pyrazole-7-carbonitrile] |
| 1.39 | 1.75 | 1.272 | CN1C(=O)C(c2c(-c3ccc4ccccc4c3)[nH]c3[nH]c(=O)[nH]c(=O)c23)c2ccccc21 (stereo not shown) [Entry 236, 5-(1-methyl-2-oxo-2,3-dihydro-1H-indol-3-yl)-6-(2-naphthyl)-1H-pyrrolo[2,3-d]pyrimidine-2,4(3H,7H)-dione] |
| 1.119 | 1.238 |  | Cc1ccc(Cn2c(SCc3ccc(C(=O)O)cc3)nc3cccnc32)cc1 [Entry 238, 4-[[3-[(4-methylphenyl)methyl]imidazo[4,5-b]pyridin-2-yl]sulfanylmethyl]benzoic acid] |
| 1.125 | 1.314 |  | CN1CCCc2cc(C(=O)NC3CCCCC3)sc21 [Entry 239, N~2~cyclohexyl-7-methyl-4,5,6,7-tetrahydrothieno[2,3-b]pyridine-2-carboxamide] |
| 1.091 | 1.206 |  | Cc1ccc(-n2nc3c(=O)n(CCCC(=O)NCc4ccccc4C)nc(C)c3c2C)cc1 [Entry 240, 4-[3,4-dimethyl-2-(4-methylphenyl)-7-oxopyrazolo[3,4-d]pyridazin-6-yl]-N-[(2-methylphenyl)methyl]butanamide] |
| 1.099 | 1.249 |  | NC(=O)CN1c2ccc(F)cc2-c2ccccc2S1(=O)=O [Entry 241, 2-(9-fluoro-5,5-dioxido-6H-dibenzo[c,e][1,2]thiazin-6-yl)acetamide] |
| 1.068 | 1.283 |  | O=C(O)c1ccc(N2C(=O)c3[nH]nc(-c4ccccc4)c3C2c2cccc(O)c2)cc1 (stereo not shown) [Entry 242, 4-[4-(3-hydroxyphenyl)-6-oxo-3-phenyl-1,4-dihydropyrrolo[3,4-c]pyrazol-5-yl]benzoic acid] |
| 1.324 | 1.471 |  | O=c1cc(-c2cccc3c2Sc2ccccc2S3)oc(N2CCOCC2)c1 [Entry 243, 2-morpholin-4-yl-6-thianthren-1-ylpyran-4-one] |
| 1.737 | 2.572 | 1.32 | N#C/C(=C\c1ccc(-c2ccc(C(=O)O)cc2)o1)C(=O)Nc1ccccc1C(=O)O [Entry 244, 2-[[(E)-3-[5-(4-carboxyphenyl)furan-2-yl]-2-cyanoprop-2-enoyl]amino]benzoic acid] |

| SMILES | Fold-change determined at compound concentration 33 μM | Fold-change determined at compound concentration 100 μM | Fold-change determined at compound concentration 10 μM |
| --- | --- | --- | --- |
| COc1ccc(Cc2nccc3cc(OC)c(OC)cc23)cc1OC [Entry 237, 1-(3,4-dimethoxybenzyl)-6,7-dimethoxyisoquinoline] | 1.166 | 1.362 |  |
